Experimental data taken from patent US7381540B2, “Composition for measuring glucose having improved substrate specificity” (Toyo Boseki Kabushiki Kaisha, priority 2005, dated 2008).

Tests used:
modified PQQGDH [1] = test: Substrate specificity using glucose assay system (ferricyanide reduction, absorbance 420 nm); assay type: biochemical
Description: D-glucose+ferricyanide ion+PQQGDH D-glucono-1,5-lactone+ferrocyanide ion
Specificity to each substrate can be determined by changing D-glucose to other saccharides. The presence of the ferrocyanide ion produced by reduction of the ferricyanide ion was confirmed by measuring the decrease of absorbance at a wavelength of 420 nm by spectrophotometry.
A. […]
B. Potassium ferricyanide solution: 50 mM (0.165 g potassium ferricyanide (molecular weight: 329.25) dissolved in 10 ml of distilled water)
C. PQQGDH solution: 31000 U/ml (approx. 128 mg PQQGDH (Toyobo: GLD-331) dissolved in 5 ml of distilled water)
D. Substrate solution (D-glucose solution or maltose solution): 100 or 400 mM
• 1. The following reaction mixture was prepared in a light shielding bottle, and stored on ice (prepared at use). 48.2 mL of each buffer solution (pH6.5) (A) • 4.0 mL of potassium ferricyanide solution (B) • 0.19 mL of (C) • 2. 2.65 ml of the reaction mixture and 0.3 ml of additive were placed in a test tube (plastic) and pre-warmed for 5 minutes at 37° C. • 3. 0.15 ml of substrate solution (D) were added and mixed gently. • 4. The reduction in the absorbance relative to water at 420 nm was recorded for 1 to 3 minutes with a spectrophotometer while maintaining at a temperature of 37° C., and the ΔOD per minute was calculated from the initial linear portion of the curve (ΔOD test). At the same time, the same procedure was carried out with the exception of adding distilled water instead of glucose solution followed by measurement of the blank (ΔOD blank).
The above-mentioned procedure was carried out at each of the predetermined concentrations shown in Tables 1 to 3 using as additives succinic acid, adipic acid, suberic acid, pimeric acid, potassium chloride, ammonium chloride, diammonium hydrogen citrate, malonic acid, L-lysine, taurine, 3,3-dimethylglutaric acid, malic acid, glutaric acid, calcium glycerate, amino-n-butyric acid, sodium glycolate, sodium α-ketoglutarate, fumaric acid, glycerin, glutamic acid and serine. And the procedure was also carried out for those not containing additives to assess the effects of additives.
Variation in absorbance per unit time was determined by calculating ΔOD/min(ΔOD test−ΔOD blank)
To evaluate whether activity had declined with respect to sugars other than glucose, the ΔOD/min (a) with D-glucose as the substrate solution and the ΔOD/min (b) with the other sugar in place of D-glucose as the substrate solution were measured, and the relative value ((b)/(a)×100) was calculated given 100 as the measurement value with glucose as the substrate.
In each of Tables 3 to 5, in the case the value of the ratio of measured values of maltose and glucose (maltose/glucose) relative to the control (control: no addition) is small, activity with respect to maltose during glucose measurement decreases.

modified PQQGDH [2] = test: Maltose activity of glucose electrode loaded with modified PQQGDH (oxidation current, potassium ferricyanide mediator); assay type: biochemical, Acinetobacter baumannii strain NCIMB11517; conditions: solute 50 mM, pH 5.5; glucose or maltose 4 mM; 0.1 M potassium ferricyanide; +0.35 V; 25° C.
Description: 0.5 g of carbon graphite were placed in a mortar followed by the addition of 0.3 ml of liquid paraffin and kneading with a pestle for 30 minutes to produce a carbon paste. The resulting carbon paste was spread onto a platinum electrode followed by the addition of 10 μl of the modified PQQGDH solution (2,000 U/ml) produced in Example 2 and air drying for 30 minutes at room temperature. A cut cellulose semi-permeable membrane (molecular weight: 8,000) was placed over the dried enzyme electrode and the semi-permeable membrane was immobilized with plastic O-rings. The glucose electrode produced in this manner was then used after preliminarily immersing in the cold reaction solvent for 30 minutes.
The substances listed in Table 1 were used as solutes, and buffers were respectively prepared having a final concentration of 50 mM (pH 5.5). Each of the solvents contained an activator/stabilizer in the form of calcium chloride at 1 mM and surfactant in the form of 0.1% Triton X-100 in addition to the solute listed in Table 1. Potassium ferricyanide was dissolved in each of the produced solvents to a concentration of 0.1 M to prepare reaction solutions.
50 mM phosphoric acid or pimeric acid solution containing 1 mM calcium chloride and 0.1% Triton X-100 (consisting of three types having pH values of 5.0, 6.0 and 7.0, respectively) were prepared. Maltose activity of the glucose electrode was investigated for each according to the method of Example 5.

modified PQQGDH [3] = test: Substrate specificity using glucose assay system (ferricyanide reduction, absorbance 420 nm); assay type: biochemical; conditions: potassium phosphate buffer pH 7.0
[4] = glutaric acid buffer pH 7.0, reagent 0.1%, substrate 4.8 mM, control 0.86
[5] = glutaric acid buffer pH 7.0, reagent 0.1%, substrate 19.2 mM, control 0.94
[6] = glutaric acid buffer pH 7.0, reagent 1%, substrate 4.8 mM, control 0.86
[7] = glutaric acid buffer pH 7.0, reagent 1%, substrate 19.2 mM, control 0.94
[8] = reagent 0.5%, substrate 4.8 mM, control 0.85
[9] = reagent 1%, substrate 4.8 mM, control 0.85
[10] = reagent 2%, substrate 4.8 mM, control 0.85
[11] = reagent 2%, substrate 19.2 mM, control 0.93
[12] = phthalic acid buffer pH 7.0, reagent 0.5%, substrate 4.8 mM, control 0.72
[13] = phthalic acid buffer pH 7.0, reagent 0.5%, substrate 19.2 mM, control 0.75
[14] = phthalic acid buffer pH 7.0, reagent 1%, substrate 4.8 mM, control 0.72
[15] = phthalic acid buffer pH 7.0, reagent 1%, substrate 19.2 mM, control 0.75
[16] = phthalic acid buffer pH 7.0, reagent 2%, substrate 4.8 mM, control 0.72
[17] = phthalic acid buffer pH 7.0, reagent 2%, substrate 19.2 mM, control 0.75
[18] = potassium phosphate buffer pH 7.0, reagent 0.5%, substrate 19.2 mM, control 0.93
[19] = potassium phosphate buffer pH 7.0, reagent 1%, substrate 19.2 mM, control 0.93

## O=C([O-])C(O)CO.O=C([O-])C(O)CO.[Ca+2] (racemic) [Calcium DL-glycerate]
Modified PQQGDH [1]; glutaric acid buffer pH 7.0, reagent 0.33%, substrate 4.8 mM, control 0.86
  Maltose/glucose ratio: 0.60
Modified PQQGDH [1]; glutaric acid buffer pH 7.0, reagent 0.33%, substrate 19.2 mM, control 0.94
  Maltose/glucose ratio: 0.82

## O=C(O)CC(O)C(=O)O (racemic) [D,L-malic acid]
Modified PQQGDH [2]
  Maltose Activity (%): 18.9%
Modified PQQGDH [1]; [4]
  Maltose/glucose ratio: 0.57
Modified PQQGDH [1]; [5]
  Maltose/glucose ratio: 0.77
Modified PQQGDH [1]; [6]
  Maltose/glucose ratio: 0.34
Modified PQQGDH [1]; [7]
  Maltose/glucose ratio: 0.40

## O=C(O)CCC(=O)C(=O)O [2-ketoglutaric acid]
Modified PQQGDH [2]
  Maltose Activity (%): 19.3%

## CC(=O)O [Acetic acid, reference compound]
Modified PQQGDH [2]
  Maltose Activity (%): 35.5%

## O=C(O)CCCCC(=O)O [Adipic acid]
Modified PQQGDH [2]
  Maltose Activity (%): 20.7%
Modified PQQGDH [1]; [4]
  Maltose/glucose ratio: 0.73
Modified PQQGDH [1]; [5]
  Maltose/glucose ratio: 0.84
Modified PQQGDH [1]; [6]
  Maltose/glucose ratio: 0.43
Modified PQQGDH [1]; [7]
  Maltose/glucose ratio: 0.67
Modified PQQGDH [1]; phthalic acid buffer pH 7.0, reagent 0.05%, substrate 4.8 mM, control 0.72
  Maltose/glucose ratio: 0.66
Modified PQQGDH [1]; phthalic acid buffer pH 7.0, reagent 0.05%, substrate 19.2 mM, control 0.75
  Maltose/glucose ratio: 0.68
Modified PQQGDH [1]; phthalic acid buffer pH 7.0, reagent 0.1%, substrate 4.8 mM, control 0.72
  Maltose/glucose ratio: 0.65
Modified PQQGDH [1]; phthalic acid buffer pH 7.0, reagent 0.1%, substrate 19.2 mM, control 0.75
  Maltose/glucose ratio: 0.64
Modified PQQGDH [1]; phthalic acid buffer pH 7.0, reagent 0.2%, substrate 4.8 mM, control 0.72
  Maltose/glucose ratio: 0.65
Modified PQQGDH [1]; phthalic acid buffer pH 7.0, reagent 0.2%, substrate 19.2 mM, control 0.75
  Maltose/glucose ratio: 0.58

## Cl.N [Ammonium chloride]
Modified PQQGDH [3]; [8]
  Maltose/glucose ratio: 0.72
Modified PQQGDH [3]; [9]
  Maltose/glucose ratio: 0.58
Modified PQQGDH [3]; [10]
  Maltose/glucose ratio: 0.43
Modified PQQGDH [3]; [11]
  Maltose/glucose ratio: 0.70
Modified PQQGDH [1]; [6]
  Maltose/glucose ratio: 0.56
Modified PQQGDH [1]; [7]
  Maltose/glucose ratio: 0.71
Modified PQQGDH [1]; [12]
  Maltose/glucose ratio: 0.60
Modified PQQGDH [1]; [13]
  Maltose/glucose ratio: 0.67
Modified PQQGDH [1]; [14]
  Maltose/glucose ratio: 0.57
Modified PQQGDH [1]; [15]
  Maltose/glucose ratio: 0.59
Modified PQQGDH [1]; [16]
  Maltose/glucose ratio: 0.52
Modified PQQGDH [1]; [17]
  Maltose/glucose ratio: 0.52
Modified PQQGDH [1]; [18]
  Maltose/glucose ratio: 0.91
Modified PQQGDH [1]; [19]
  Maltose/glucose ratio: 0.84

## O=C(O)CC(O)(CC(=O)O)C(=O)O [Citric acid]
Modified PQQGDH [2]
  Maltose Activity (%): 23.4%

## N[C@H](CCC(=O)O)C(=O)O [D-glutamic acid]
Modified PQQGDH [1]; [4]
  Maltose/glucose ratio: 0.73
Modified PQQGDH [1]; [5]
  Maltose/glucose ratio: 0.89

## N.N.O=C(O)CC(O)(CC(=O)O)C(=O)O [Diammonium hydrogen citrate]
Modified PQQGDH [3]; [8]
  Maltose/glucose ratio: 0.64
Modified PQQGDH [3]; [9]
  Maltose/glucose ratio: 0.52
Modified PQQGDH [3]; [10]
  Maltose/glucose ratio: 0.36
Modified PQQGDH [3]; [11]
  Maltose/glucose ratio: 0.54
Modified PQQGDH [1]; [4]
  Maltose/glucose ratio: 0.78
Modified PQQGDH [1]; [5]
  Maltose/glucose ratio: 0.90
Modified PQQGDH [1]; [6]
  Maltose/glucose ratio: 0.59
Modified PQQGDH [1]; [7]
  Maltose/glucose ratio: 0.82
Modified PQQGDH [1]; [12]
  Maltose/glucose ratio: 0.79
Modified PQQGDH [1]; [13]
  Maltose/glucose ratio: 0.55
Modified PQQGDH [1]; [14]
  Maltose/glucose ratio: 0.80
Modified PQQGDH [1]; [15]
  Maltose/glucose ratio: 0.70
Modified PQQGDH [1]; [16]
  Maltose/glucose ratio: 0.89
Modified PQQGDH [1]; [17]
  Maltose/glucose ratio: 0.63
Modified PQQGDH [1]; [18]
  Maltose/glucose ratio: 0.88
Modified PQQGDH [1]; [19]
  Maltose/glucose ratio: 0.76
Modified PQQGDH [1]; substrate concentration of 4.8 mM, in some cases
  activity with respect to maltose compared with the control (in words): did not decrease

## O=C(O)/C=C/C(=O)O [Fumaric acid]
Modified PQQGDH [1]; [6]
  Maltose/glucose ratio: 0.68
Modified PQQGDH [1]; [7]
  Maltose/glucose ratio: 0.88

## O=C(O)CCCC(=O)O [Glutaric acid]
Modified PQQGDH [2]
  Maltose Activity (%): 22.1%
Modified PQQGDH [1]; [4]
  Maltose/glucose ratio: 0.65
Modified PQQGDH [1]; [5]
  Maltose/glucose ratio: 0.81
Modified PQQGDH [1]; [6]
  Maltose/glucose ratio: 0.34
Modified PQQGDH [1]; [7]
  Maltose/glucose ratio: 0.54
